PMC6733504, “Effects of flavoring compounds used in electronic cigarette refill liquids on endothelial and vascular function” (PLoS ONE, 2019)

Experiments:
[1] = test system: Porcine aortic endothelial cells (endogenous NO/cGMP pathway); experiment: A23187 (Ca2+ ionophore)-induced endothelial cGMP formation; type: cell-based
Procedure: Porcine aortic endothelial cells were isolated as described and cultured at 37°C, 5% CO2 for up to 3 passages in Dulbecco´s modified Eagle´s medium, containing 10% heat-inactivated fetal calf serum (FCS), 100 U/ml penicillin, 0.1 mg/ml streptomycin, and 1.25 μg/ml amphotericin B. Prior to experiments, cells were subcultured into 24-well plates (determination of cGMP formation) or 6-well plates (determination of L-citrulline formation).
Accumulation of intracellular 3',5'-cyclic GMP (cGMP) was determined as previously described. Briefly, endothelial cells were washed and preincubated with the compounds to be tested for 15 minutes at 37°C in 50 mM Tris buffer, pH 7.4, containing 100 mM NaCl, 5 mM KCl, 1 mM MgCl2, 2.5 mM CaCl2, 1 mM 3-isobutyl-1-methylxanthine, and 1 μM indomethacin. Reactions were started by addition of the Ca^2+ ionophore A 23187 (final concentration 1 μM) or the NO donor DEA/NO (final concentration 1 μM) and terminated after 4 minutes by removal of the incubation medium and addition of 0.01 M HCl. Within 1 h, intracellular cGMP was completely released into the supernatant and measured by radioimmunoassay.

endothelial cells = settings: pig, 1 h, 1 mM
Procedure: To test for membrane integrity, endothelial cells were assayed for release of lactate dehydrogenase (LDH) into the culture medium. Subsequent to incubation with flavoring compounds (1 mM each) for 1 hour, 20-μl aliquots of the culture media were mixed with 200 μl of reagent buffer (1 mM pyruvate and 0.1 mM NAD^+ in PBS). The decrease in light absorbance at 340 nm was monitored using a diode array spectrophotometer (Hewlett Packard 8452A). Maximum LDH release was determined by treating the cells with 1% Triton X-100.

[2] = Electrochemical determination of NO released from DEA/NO (NO scavenging); settings: DEA/NO 1 μM
Procedure: Scavenging of NO by flavoring compounds was studied with a nitric oxide sensor (ISO-NOP, World Precision Instruments, Berlin, Germany), calibrated with acidified nitrite as described previously. Free NO radical was generated by incubation of DEA/NO (1 μM) in 1 ml of 100 mM phosphate buffer, pH 7.4, in the absence or presence of superoxide dismutase (2500 U/ml) at ambient temperature. At the peak concentration of NO, flavoring compounds (10 μl of DSMO stock solutions) were added, DMSO served as vehicle control.

## O=C/C=C/c1ccccc1 [Cinnamaldehyde, (2E)-3-Phenylprop-2-enal]
[1]
  Concentration inhibiting Ca2+-stimulated endothelial cGMP accumulation: ≥ 0.3 mM
[1]; flavoring 1 mM, 15 min preincubation, 1 μM A23187 for 4 min (Fig 1A)
  A23187-induced cGMP formation: about 35 % of controls
Endothelial cells
  LDH release (% of maximum): 1.8±0.50 % of maximum
[2]; 1 mM
  Effect on recorded NO signal (NO scavenging): only moderate effects
[2]; 10 mM
  Effect on recorded NO signal (NO scavenging): pronounced decrease
